# In BindingDB's records for doi:10.1016/j.bioorg.2016.06.004 (Nirma University, 2016):
# Biological target: T1, Seed linoleate 13S-lipoxygenase-1 (Glycine max, UniProt P08170)
# T1 sequence (P08170 whole entry): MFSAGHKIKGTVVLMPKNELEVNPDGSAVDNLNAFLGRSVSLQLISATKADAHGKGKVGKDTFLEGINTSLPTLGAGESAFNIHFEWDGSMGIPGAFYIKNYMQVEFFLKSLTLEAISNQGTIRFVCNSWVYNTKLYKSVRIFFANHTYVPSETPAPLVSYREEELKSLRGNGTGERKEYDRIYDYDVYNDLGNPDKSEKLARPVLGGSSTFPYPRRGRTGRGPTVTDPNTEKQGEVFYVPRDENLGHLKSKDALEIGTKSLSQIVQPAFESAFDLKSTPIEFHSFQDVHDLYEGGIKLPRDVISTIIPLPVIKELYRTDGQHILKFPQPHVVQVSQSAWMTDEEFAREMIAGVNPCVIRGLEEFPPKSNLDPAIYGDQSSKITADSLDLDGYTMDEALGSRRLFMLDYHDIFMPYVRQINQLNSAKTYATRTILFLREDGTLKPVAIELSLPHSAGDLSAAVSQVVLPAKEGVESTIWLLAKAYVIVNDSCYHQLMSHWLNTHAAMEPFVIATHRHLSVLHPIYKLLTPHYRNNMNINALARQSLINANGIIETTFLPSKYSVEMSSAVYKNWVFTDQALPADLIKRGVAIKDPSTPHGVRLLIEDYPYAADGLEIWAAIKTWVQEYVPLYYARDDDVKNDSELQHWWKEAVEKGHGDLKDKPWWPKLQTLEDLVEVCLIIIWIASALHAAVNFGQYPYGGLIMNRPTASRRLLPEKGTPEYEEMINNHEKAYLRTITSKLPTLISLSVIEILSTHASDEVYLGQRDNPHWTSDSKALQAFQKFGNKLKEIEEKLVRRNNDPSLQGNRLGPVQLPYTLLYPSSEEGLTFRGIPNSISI
# Assay: In-vitro LOX Inhibition Assay
# Conditions: pH 9; 25 °C
# Experimental: It is determined by kinetic mode of spectro-photometric determination method,which was performed by recording the rate of change in absorbance at 234 nm. It is based on the principle that the increase of absorbance at 234 nm due to formation of 9- and 13- hydroperoxides by LOX with substrate (linoleic acid). […] Briefly, the stock solution of lipoxygenase was prepared by dissolving 10,000 units/ml of Lipoxidase in 200 mM borate buffer, pH 9, and 5 uL of 80 mmol linoleic acid. Six different concentrations of inhibitors were selected, and made for determining the enzyme inhibition activity. Increasing concentrations of inhibitors were added to enzyme solution and kept for 5 min followed by substrate addition and kept at room temperature with stirring for 20 min.
row,SMILES,IC50 [nM]
1,Cc1cc(=O)oc2cc(OCC(O)CNc3nc4ccc([N+](=O)[O-])cc4s3)ccc12 (stereo not given) [7-(2-hydroxy-3-(6-nitrobenzo[d]thiazol-2-ylamino)propoxy)-4-methyl-2H-chromen-2-one (31)],3.24
2,"Cc1cc(=O)oc2cc(OCC(O)CNc3nc4cc(Cl)c(Cl)cc4s3)ccc12 (stereo not given) [7-(3-(5,6-dichlorobenzo[d]thiazol-2-ylamino)-2-hydroxypropoxy)-4-methyl-2H-chromen-2-one (34)]",15.5
3,Cc1cc(=O)oc2cc(OCC(O)CNc3nc4ccc(Cl)cc4s3)ccc12 (stereo not given) [7-(3-(6-chlorobenzo[d]thiazol-2-ylamino)-2-hydroxypropoxy)-4-methyl-2H-chromen-2-one (33)],2.79

# Further compounds by falling IC50, results first:
row,IC50 [nM],SMILES
1,6.16,Cc1cc(=O)oc2cc(OCC(O)CNc3nc4cc(Cl)c(F)cc4s3)ccc12 (stereo not given) [7-(3-(5-chloro-6-fluorobenzo[d]thiazol-2-ylamino)-2-hydroxypropoxy)-4-methyl-2H-chromen-2-one (32)]
2,2.12,COc1ccc2nc(NCC(O)COc3ccc4c(C)cc(=O)oc4c3)sc2c1 (stereo not given) [7-(2-hydroxy-3-(6-methoxybenzo[d]thiazol-2-ylamino)propoxy)-4-methyl-2H-chromen-2-one (35)]
